Results taken from ChEMBL document CHEMBL5665443, “Enzyme Inhibitor Single Concentration assay results for EUbOPEN Chemogenomics Library” (2024).
Where a SMILES comes first, the peptide text is derived from it.

Experiments:
Details in all cases: Hit No
[1] = molecular target: T1, Adenine DNA glycosylase (Homo sapiens) (UniProt Q9UIF7);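 also: human MUTYH activity read as 594 nm fluorescence from cleavage and release of a quenched DNA duplex, coupled with APE1 for strand incision, lower signal meaning inhibition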
T1 sequence (whole entry): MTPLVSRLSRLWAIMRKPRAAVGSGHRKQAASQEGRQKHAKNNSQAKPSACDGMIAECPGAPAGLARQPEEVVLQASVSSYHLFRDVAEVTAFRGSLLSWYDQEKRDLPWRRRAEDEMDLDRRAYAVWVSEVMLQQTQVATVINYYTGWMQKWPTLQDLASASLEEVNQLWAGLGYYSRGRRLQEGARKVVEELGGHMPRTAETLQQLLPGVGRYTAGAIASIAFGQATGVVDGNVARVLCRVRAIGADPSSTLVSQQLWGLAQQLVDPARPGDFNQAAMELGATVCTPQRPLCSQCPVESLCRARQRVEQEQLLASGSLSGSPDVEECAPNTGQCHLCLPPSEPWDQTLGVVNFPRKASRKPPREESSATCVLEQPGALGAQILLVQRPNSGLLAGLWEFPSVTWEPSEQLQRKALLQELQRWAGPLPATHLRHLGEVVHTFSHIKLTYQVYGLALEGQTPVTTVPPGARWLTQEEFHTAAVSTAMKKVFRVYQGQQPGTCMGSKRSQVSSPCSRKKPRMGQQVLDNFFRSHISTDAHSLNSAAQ
Description: Inhibition of MUTYH by quantifying inhibition of MUTYH-mediated cleavage and dissociation of quenched duplex DNA oligonucleotides, measured as fluorescence at 594 nm. To generate a functional strand incision and increase turn-over this assay is coupled to APE1.

[2] = molecular target: Endonuclease 8-like 1 (Homo sapiens) (UniProt Q96FI4);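 also: fluorescence at 594 nm from quenched duplex DNA oligonucleotides released by NEIL1 cleavage and strand separation, reported as reduction of this enzyme activity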
Sequence of Endonuclease 8-like 1 (Homo sapiens) (Q96FI4 whole entry): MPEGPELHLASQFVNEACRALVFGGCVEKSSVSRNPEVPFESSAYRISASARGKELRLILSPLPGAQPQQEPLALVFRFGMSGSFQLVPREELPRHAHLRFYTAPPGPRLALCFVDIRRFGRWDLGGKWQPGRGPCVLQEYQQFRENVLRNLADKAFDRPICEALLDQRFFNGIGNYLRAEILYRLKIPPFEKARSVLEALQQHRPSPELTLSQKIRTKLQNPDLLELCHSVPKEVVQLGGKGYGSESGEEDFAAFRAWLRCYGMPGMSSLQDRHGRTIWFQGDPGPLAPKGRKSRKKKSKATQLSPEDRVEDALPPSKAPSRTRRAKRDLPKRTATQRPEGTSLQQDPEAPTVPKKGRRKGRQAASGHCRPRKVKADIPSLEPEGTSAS
Description: Inhibition of NEIL1 by quantifying inhibition of NEIL1-mediated cleavage and dissociation of quenched duplex DNA oligonucleotides, measured as fluorescence at 594 nm.

[3] = molecular target: T2, Endonuclease 8-like 2 (Homo sapiens) (UniProt Q969S2);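 also: fluorescence at 594 nm reports NEIL2 cutting and release of a quenched double-stranded DNA oligo substrate, reduced signal read as inhibition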
T2 sequence (whole entry): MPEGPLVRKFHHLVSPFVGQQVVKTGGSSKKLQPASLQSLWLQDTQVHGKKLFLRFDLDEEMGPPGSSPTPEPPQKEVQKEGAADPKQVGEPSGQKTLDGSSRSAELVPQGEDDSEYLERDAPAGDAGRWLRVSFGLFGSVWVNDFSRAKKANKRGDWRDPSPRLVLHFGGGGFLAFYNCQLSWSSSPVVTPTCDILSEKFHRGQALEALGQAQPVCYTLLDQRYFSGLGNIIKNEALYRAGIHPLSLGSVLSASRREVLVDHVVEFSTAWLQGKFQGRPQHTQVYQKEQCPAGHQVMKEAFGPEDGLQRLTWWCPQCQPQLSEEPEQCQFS
Description: Inhibition of NEIL2 by quantifying inhibition of NEIL2-mediated cleavage and dissociation of quenched duplex DNA oligonucleotides, measured as fluorescence at 594 nm.

[4] = molecular target: N-glycosylase/DNA lyase (Homo sapiens) (UniProt O15527);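 also: OGG1 cleavage of a quenched duplex DNA oligonucleotide, coupled to APE1 for strand incision, read as fluorescence at 594 nm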
Sequence of N-glycosylase/DNA lyase (Homo sapiens) (O15527 whole entry): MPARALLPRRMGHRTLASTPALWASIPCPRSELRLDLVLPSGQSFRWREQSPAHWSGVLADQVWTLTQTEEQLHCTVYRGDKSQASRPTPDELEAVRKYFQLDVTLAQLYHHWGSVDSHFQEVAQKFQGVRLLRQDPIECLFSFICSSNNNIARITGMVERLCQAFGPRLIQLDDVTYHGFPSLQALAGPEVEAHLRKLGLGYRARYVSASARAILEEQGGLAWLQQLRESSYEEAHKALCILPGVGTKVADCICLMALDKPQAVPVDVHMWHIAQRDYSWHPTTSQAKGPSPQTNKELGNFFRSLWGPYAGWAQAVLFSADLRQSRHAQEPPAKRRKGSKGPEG
Description: Inhibition of OGG1 by quantifying inhibition of OGG1-mediated cleavage and dissociation of quenched duplex DNA oligonucleotides, measured as fluorescence at 594 nm. To generate a functional strand incision and increase turn-over this assay is coupled to APE1.

[5] = molecular target: T3, Single-strand selective monofunctional uracil DNA glycosylase (Homo sapiens) (UniProt Q53HV7);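 also: enzymatic SMUG1 assay coupled with APE1, reading fluorescence at 594 nm released when a quenched double-stranded DNA oligonucleotide substrate is cleaved and separated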
T3 sequence (whole entry): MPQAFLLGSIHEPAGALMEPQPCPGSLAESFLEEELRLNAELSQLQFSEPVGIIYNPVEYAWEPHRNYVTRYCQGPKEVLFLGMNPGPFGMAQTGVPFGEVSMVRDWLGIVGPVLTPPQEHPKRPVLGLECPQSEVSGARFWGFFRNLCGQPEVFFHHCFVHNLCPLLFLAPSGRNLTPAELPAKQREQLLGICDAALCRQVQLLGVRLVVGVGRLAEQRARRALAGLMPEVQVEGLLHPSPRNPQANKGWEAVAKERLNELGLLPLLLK
Description: Inhibition of SMUG1 by quantifying inhibition of SMUG1-mediated cleavage and dissociation of quenched duplex DNA oligonucleotides, measured as fluorescence at 594 nm. To generate a functional strand incision and increase turn-over this assay is coupled to APE1.

[6] = molecular target: G/T mismatch-specific thymine DNA glycosylase (Homo sapiens) (UniProt Q13569);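 also: human TDG cleavage of quenched duplex DNA oligonucleotides coupled to APE1, strand release read as fluorescence at 594 nm, inhibition of TDG activity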
Sequence of G/T mismatch-specific thymine DNA glycosylase (Homo sapiens) (Q13569 whole entry): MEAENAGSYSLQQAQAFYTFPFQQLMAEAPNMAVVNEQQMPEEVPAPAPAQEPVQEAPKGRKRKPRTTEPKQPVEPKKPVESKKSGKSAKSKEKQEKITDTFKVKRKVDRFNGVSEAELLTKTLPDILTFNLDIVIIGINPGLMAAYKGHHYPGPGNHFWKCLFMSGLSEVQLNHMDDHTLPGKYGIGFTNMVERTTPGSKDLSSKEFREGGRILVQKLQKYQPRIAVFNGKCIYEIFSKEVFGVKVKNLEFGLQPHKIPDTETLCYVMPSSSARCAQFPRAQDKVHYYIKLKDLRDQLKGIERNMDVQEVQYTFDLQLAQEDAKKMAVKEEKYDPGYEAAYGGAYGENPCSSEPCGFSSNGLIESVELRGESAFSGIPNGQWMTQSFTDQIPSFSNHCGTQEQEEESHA
Description: Inhibition of TDG by quantifying inhibition of TDG-mediated cleavage and dissociation of quenched duplex DNA oligonucleotides, measured as fluorescence at 594 nm. To generate a functional strand incision and increase turn-over this assay is coupled to APE1.

[7] = molecular target: Uracil-DNA glycosylase (Homo sapiens) (UniProt P13051);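 also: UNG excision on a quenched double-stranded DNA oligo probe, with APE1 added for strand incision and turnover, read as fluorescence at 594 nm as strands separate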
Sequence of Uracil-DNA glycosylase (Homo sapiens) (P13051 whole entry, the tested form may be a part): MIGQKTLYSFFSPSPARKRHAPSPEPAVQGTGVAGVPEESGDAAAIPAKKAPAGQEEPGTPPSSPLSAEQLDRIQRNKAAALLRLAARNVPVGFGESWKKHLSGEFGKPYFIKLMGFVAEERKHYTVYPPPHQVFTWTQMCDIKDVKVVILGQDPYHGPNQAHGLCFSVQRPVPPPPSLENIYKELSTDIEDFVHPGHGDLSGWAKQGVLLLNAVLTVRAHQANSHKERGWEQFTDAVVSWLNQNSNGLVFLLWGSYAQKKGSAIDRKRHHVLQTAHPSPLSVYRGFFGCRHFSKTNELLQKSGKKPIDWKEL
Description: Inhibition of UNG by quantifying inhibition of UNG-mediated cleavage and dissociation of quenched duplex DNA oligonucleotides, measured as fluorescence at 594 nm. To generate a functional strand incision and increase turn-over this assay is coupled to APE1.

[8] = molecular target: Methyl-CpG-binding domain protein 4 (Homo sapiens) (UniProt O95243);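 also: MBD4 activity read as fluorescence at 594 nm from cleavage and release of a quenched duplex DNA oligonucleotide, with APE1 coupled to incise the strand and raise turnover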
Sequence of Methyl-CpG-binding domain protein 4 (Homo sapiens) (O95243 whole entry, the tested form may be a part): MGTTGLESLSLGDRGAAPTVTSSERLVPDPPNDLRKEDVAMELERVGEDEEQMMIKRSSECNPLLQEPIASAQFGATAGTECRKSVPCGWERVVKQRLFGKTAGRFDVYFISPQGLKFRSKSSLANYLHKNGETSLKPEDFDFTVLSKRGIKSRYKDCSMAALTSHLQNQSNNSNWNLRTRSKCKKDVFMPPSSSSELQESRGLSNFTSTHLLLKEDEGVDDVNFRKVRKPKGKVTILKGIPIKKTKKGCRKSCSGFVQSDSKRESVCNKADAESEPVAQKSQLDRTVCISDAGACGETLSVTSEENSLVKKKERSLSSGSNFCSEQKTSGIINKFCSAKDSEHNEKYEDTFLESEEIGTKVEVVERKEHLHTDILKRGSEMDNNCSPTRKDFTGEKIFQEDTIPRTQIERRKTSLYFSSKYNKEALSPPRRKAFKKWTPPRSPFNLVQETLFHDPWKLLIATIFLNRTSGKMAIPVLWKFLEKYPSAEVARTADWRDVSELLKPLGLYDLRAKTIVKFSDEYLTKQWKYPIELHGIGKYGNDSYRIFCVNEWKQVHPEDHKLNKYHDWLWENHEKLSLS
Description: Inhibition of MBD4 by quantifying inhibition of MBD4-mediated cleavage and dissociation of quenched duplex DNA oligonucleotides, measured as fluorescence at 594 nm. To generate a functional strand incision and increase turn-over this assay is coupled to APE1.

Structure (SMILES)	inhibition ([1]; Compound Concentration 1.0 uM) [%]	inhibition ([2]; Compound Concentration 1.0 uM) [%]	inhibition ([3]; Compound Concentration 1.0 uM) [%]	inhibition ([4]; Compound Concentration 1.0 uM) [%]	inhibition ([5]; Compound Concentration 1.0 uM) [%]	inhibition ([6]; Compound Concentration 1.0 uM) [%]	inhibition ([7]; Compound Concentration 1.0 uM) [%]	inhibition ([8]; Compound Concentration 1.0 uM) [%]	inhibition ([1]; Compound Concentration 10.0 uM) [%]	inhibition ([2]; Compound Concentration 10.0 uM) [%]	inhibition ([3]; Compound Concentration 10.0 uM) [%]	inhibition ([4]; Compound Concentration 10.0 uM) [%]	inhibition ([5]; Compound Concentration 10.0 uM) [%]	inhibition ([6]; Compound Concentration 10.0 uM) [%]	inhibition ([7]; Compound Concentration 10.0 uM) [%]	inhibition ([8]; Compound Concentration 10.0 uM) [%]
CCOC(=O)c1c(/C(C#N)=C\N)c2ccc(Cl)c(Cl)c2n1C	-2.85	-2.9	-5.96	-3.98	12.4	41.6	0.379	–	–	–	–	–	–	–	–	–
Cc1c(NC(=O)c2cc(C(N)=O)nc3cc(F)ccc23)c(C(F)(F)F)nn1Cc1ccc(C(C)(C)C)cc1	11.6	-8.32	–	-8.67	16.4	55.8	0.116	59.5	–	–	–	–	–	–	–	–
CN(c1ccnc(CNc2nc(Nc3ccc4c(c3)CC(=O)N4)ncc2C(F)(F)F)n1)S(C)(=O)=O	1.9	1.52	-6.14	–	15.5	72	0.644	26.2	–	–	–	–	–	–	–	–
C[C@@H](N)Cc1c[nH]cn1	–	–	–	–	–	–	–	–	-1.26	3.8	-9.22	-8	-2.12	19	-6.39	–
NC[C@@H]1O[C@H](C23CC4CC(CC(C4)C2)C3)Cc2c1ccc(O)c2O	–	–	–	–	–	–	–	–	23.1	18.5	24.7	–	12.4	31.8	-2.15	-8.04
CN1CC(=O)N=C1NC(=O)Nc1cccc(Cl)c1	–	–	–	–	–	–	–	–	3.99	-2.58	3.76	-2.01	-1.34	-6.27	–	–
CN([C@@H]1CCc2c(CC(=O)O)c3cc(S(C)(=O)=O)ccc3n2C1)S(=O)(=O)c1ccc(F)cc1	–	–	–	–	–	–	–	–	-3.16	–	–	-10	11.2	46	2.31	53.8
CCC(=O)Nc1cccc(Oc2nc(Nc3ccc(N4CCN(C)CC4)cc3OC)ncc2Cl)c1	–	–	–	–	–	–	–	–	-2.48	-1.18	-8.65	–	21.8	56.8	-2.02	-9.91
C[C@@](Cc1c[nH]c2ccccc12)(NC(=O)Nc1ccc([N+](=O)[O-])cc1)C(=O)NCC1(c2ccccn2)CCCCC1	–	–	–	–	–	–	–	–	3.6	7.51	5.26	-2.05	0.936	0.518	–	–
CC(C)C[C@@H]1NC(=O)[C@@H](C(C)C)NC(=O)[C@@H]2CCCN2C(=O)[C@@H](CC(=O)O)NC(=O)[C@@H](Cc2c[nH]c3ccccc23)NC1=O (HELM PEPTIDE1{L.[dW].[dD].P.[dV]}$PEPTIDE1,PEPTIDE1,1:R1-5:R2$$$V2.0)	–	–	–	–	–	–	–	–	6.29	-3.47	0.764	–	-0.372	0.54	–	-8.68
O=C(Nc1cccnn1)N1CC(C/C=C/c2cncc(Oc3ccc(C(F)(F)F)cn3)n2)C1	–	–	–	–	–	–	–	–	-2.62	–	–	-7.39	18.1	97.9	-1.71	63.3
Cc1ccc(Cn2nc(C(=O)N[C@@H]3C(C)(C)[C@@H]4CC[C@@]3(C)C4)cc2-c2ccc(Cl)c(C)c2)cc1	–	–	–	–	–	–	–	–	-0.363	10.9	7	-0.971	-0.0818	21.7	–	-2.75
Cc1c(OCc2cccc(-c3ccc(C(=O)O)cc3)c2)cc2c(c1C)C(=O)C(C1CCCC1)C2 (stereo not given)	–	–	–	–	–	–	–	–	-1.13	-5.54	-2.23	0.771	-3.76	-4.78	–	-8.74
N#Cc1ccc(Nc2ccc3[nH]c(=O)[nH]c3c2)c(Cl)c1	7.43	–	–	-3.21	11.9	38.3	1.6	63.1	–	–	–	–	–	–	–	–
CN1CCN(c2ccc(OC(F)(F)F)c(Nc3ncc4c(n3)-c3c(c(C(N)=O)nn3CCO)CC4)c2)CC1	27.3	1.33	-8.92	-4.24	13.3	38.7	3.38	–	–	–	–	–	–	–	–	–
Clc1cccc(COc2cncc(N3CCNCC3)n2)c1	–	–	–	–	–	–	–	–	5.27	5.13	1.26	–	1.71	-5.02	-8.45	-8.79
Cc1cnc(-c2cc(Cl)ccc2F)cc1-n1c(=O)n(CC(N)=O)c2ccccc21	–	–	–	–	–	–	–	–	-6.05	-5.78	–	-7.14	7.03	23.2	1.32	36.9
Cc1c(CC(=O)O)c2cccnc2n1Cc1ccc(S(C)(=O)=O)cc1C(F)(F)F	–	–	–	–	–	–	–	–	7.57	0.834	7.75	-4.75	-4.39	-3.98	–	–
COc1ccc(S(=O)(=O)c2cc(OC)ccc2S(=O)(=O)c2ccc([C@H](C)NS(C)(=O)=O)cc2)cc1	–	–	–	–	–	–	–	–	12.1	2.76	4.76	-5.59	4.18	-5.72	–	–
O=C(Nc1ccc(-c2ccnc(Nc3ccc(N4CCOCC4)cc3)n2)cc1)[C@@H]1CCCN1	14.9	5.95	–	1.3	24.9	58.2	3.18	-0.777	–	–	–	–	–	–	–	–
Cc1cc(C(=O)N2Cc3cnn(C)c3Nc3ccccc32)ccc1CNC(=O)N1CCC[C@H]1C(=S)N1CCCN(C)CC1	–	–	–	–	–	–	–	–	-9.83	-1.83	2.51	-7	-2.21	-7.26	–	–
CCCn1c(=O)c2[nH]c(-c3cnn(Cc4cccc(C(F)(F)F)c4)c3)nc2n(CC)c1=O	–	–	–	–	–	–	–	–	-1.26	-6.43	-0.234	-1.7	4.62	-4.73	–	-7.87
COc1cc2c(CCNC(C)=O)c[nH]c2cc1Cl	–	–	–	–	–	–	–	–	-5.23	-9.99	0.0156	-6.18	0.936	4.32	–	5.14
Cc1cc(NC(=O)Nc2ccc(N(C)C)cc2)c2cc(F)cc(F)c2n1	–	–	–	–	–	–	–	–	6.04	–	–	–	-2.31	9.41	-7.93	6.31
CC(C)c1cc(Nc2nc(N3CCC[C@H](N)C3)ncc2C(N)=O)cc(C(C)C)n1	0.673	-3.69	11.5	–	11.3	25.2	1.59	-6.11	–	–	–	–	–	–	–	–
CC(C)(O)c1cncc(-c2nc3ccc(F)cc3n2C2CC2)c1	–	–	–	–	–	–	–	–	11.5	–	–	8.25	1.08	50.2	-3.32	59.6
C(#Cc1cccc(CN2CCOCC2)c1)CCN1CCCCC1	–	–	–	–	–	–	–	–	-3.69	11.2	-2.73	-4.46	-7.54	-1.72	–	0.0339
CCc1cccc(CC)c1NC(=O)c1nn(C)c2c1CCc1cnc(Nc3ccc(C(=O)NC4CCN(C)CC4)cc3OC(F)(F)F)nc1-2	–	–	–	–	–	–	–	–	-6.43	2.12	13.7	–	13.4	38.9	2.73	12.9
COc1ccc(C(=O)N2CCN(C(=O)/C=C/c3ccc(Br)cc3)CC2)cc1	–	–	–	–	–	–	–	–	16.7	2.61	-6.97	-3.17	-0.421	-0.119	–	–
